For this experiment, the target named is T1, human Nav1.8 channels (Homo sapiens, UniProt Q9Y5Y9).
T1 construct: expressed in transfected cells
T1 sequence (Q9Y5Y9 whole entry): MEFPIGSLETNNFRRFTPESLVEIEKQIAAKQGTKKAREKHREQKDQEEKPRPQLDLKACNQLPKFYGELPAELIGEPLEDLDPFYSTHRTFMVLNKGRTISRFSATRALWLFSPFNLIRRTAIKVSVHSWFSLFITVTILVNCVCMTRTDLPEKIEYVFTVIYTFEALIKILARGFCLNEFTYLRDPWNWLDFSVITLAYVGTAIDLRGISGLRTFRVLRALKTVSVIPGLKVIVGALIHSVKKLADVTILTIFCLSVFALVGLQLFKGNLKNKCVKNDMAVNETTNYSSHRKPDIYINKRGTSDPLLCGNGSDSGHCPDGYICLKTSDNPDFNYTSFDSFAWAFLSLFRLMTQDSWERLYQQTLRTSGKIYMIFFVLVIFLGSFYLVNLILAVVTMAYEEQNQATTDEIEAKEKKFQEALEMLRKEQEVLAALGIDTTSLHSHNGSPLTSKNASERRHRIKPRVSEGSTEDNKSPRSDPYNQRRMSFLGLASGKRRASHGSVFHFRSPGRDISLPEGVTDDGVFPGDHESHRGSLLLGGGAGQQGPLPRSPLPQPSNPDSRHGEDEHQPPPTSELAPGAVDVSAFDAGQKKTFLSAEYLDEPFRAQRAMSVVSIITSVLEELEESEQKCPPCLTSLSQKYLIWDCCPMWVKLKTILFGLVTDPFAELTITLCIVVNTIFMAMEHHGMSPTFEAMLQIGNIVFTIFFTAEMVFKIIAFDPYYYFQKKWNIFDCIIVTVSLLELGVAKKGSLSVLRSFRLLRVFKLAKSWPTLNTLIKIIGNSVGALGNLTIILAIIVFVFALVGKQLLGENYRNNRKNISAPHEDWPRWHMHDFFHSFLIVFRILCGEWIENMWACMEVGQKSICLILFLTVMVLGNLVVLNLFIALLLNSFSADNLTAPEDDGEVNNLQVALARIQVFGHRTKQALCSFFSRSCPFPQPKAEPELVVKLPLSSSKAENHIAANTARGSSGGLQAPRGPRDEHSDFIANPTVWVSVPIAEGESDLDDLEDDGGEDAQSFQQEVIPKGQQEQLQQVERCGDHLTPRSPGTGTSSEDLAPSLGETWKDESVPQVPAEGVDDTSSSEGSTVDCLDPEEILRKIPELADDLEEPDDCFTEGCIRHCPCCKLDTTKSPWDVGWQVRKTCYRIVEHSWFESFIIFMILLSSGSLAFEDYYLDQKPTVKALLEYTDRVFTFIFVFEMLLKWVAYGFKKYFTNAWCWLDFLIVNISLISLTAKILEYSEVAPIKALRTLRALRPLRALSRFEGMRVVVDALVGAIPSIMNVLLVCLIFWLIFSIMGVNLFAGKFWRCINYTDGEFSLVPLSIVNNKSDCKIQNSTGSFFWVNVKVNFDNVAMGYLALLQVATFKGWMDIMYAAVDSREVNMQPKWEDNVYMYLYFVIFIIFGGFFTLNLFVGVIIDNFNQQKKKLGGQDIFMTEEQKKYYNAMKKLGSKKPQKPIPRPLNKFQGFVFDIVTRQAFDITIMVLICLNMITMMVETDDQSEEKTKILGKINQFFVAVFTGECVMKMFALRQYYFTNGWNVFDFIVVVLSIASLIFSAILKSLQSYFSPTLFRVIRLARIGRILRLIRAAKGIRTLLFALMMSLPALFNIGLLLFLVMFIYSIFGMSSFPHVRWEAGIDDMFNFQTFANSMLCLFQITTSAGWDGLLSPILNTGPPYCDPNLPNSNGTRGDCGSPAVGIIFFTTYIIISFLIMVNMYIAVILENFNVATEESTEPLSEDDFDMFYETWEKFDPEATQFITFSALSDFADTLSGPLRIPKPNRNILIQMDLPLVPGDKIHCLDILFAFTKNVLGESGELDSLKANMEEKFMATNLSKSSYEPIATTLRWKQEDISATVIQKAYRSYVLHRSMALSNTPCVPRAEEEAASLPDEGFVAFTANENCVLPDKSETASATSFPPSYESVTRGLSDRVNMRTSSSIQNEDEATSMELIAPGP
Briefly: Nav1.8 Qube automated patch-clamp assay. The note with it: human Nav1.8 stably expressed in HEK 293 cells; whole-cell voltage clamp, room temperature; resting or inactivated state not specified; read-out: IC50 values (nM) for Examples in the Nav1.8 Qube Assay. It is filed as cell-based. How it is done: Compounds were tested on human Nav1.8 and Nav1.5 channels stably expressed in human embryo kidney (HEK) 293 cells. Sodium current measurements on Qube® were conducted as follows: automated 384-well patch-clamp assays on the Qube® platform (Sophion Biosciences) were used to measure the inhibition of sodium flow through human Nav1.8 and Nav1.5 channels. Whole-cell voltage-clamp recordings were performed in QChips® (Sophion Biosciences) at room temperature. Nav1.8 current measurements on Qube® were obtained as follows: Nav1.8 currents were elicited with a 10 second 1 Hertz (Hz) pulse train from a holding potential of −90 millivolts (mV), delivered to the cells once per minute in the control condition (DMSO only) and after compound addition. The 1 hertz pulse train stimulation consisted of ten test pulses to 10 millivolt (mV) for 20 milliseconds (ms), each of which was followed by a 980 millisecond repolarization to −67 millivolts. At the end of the 10 second pulse train stimulation, a second hyperpolarization step to −100 millivolt (mV) was used to recover Nav1.8 from fast inactivation. The peak currents elicited by the 1st and 10th test pulses were used to determine IC50 values for resting inhibition and inactivated state inhibition. Nav1.5 current measurements on Qube® were obtained as follows: Nav1.5 currents were elicited with a 20 second 3 Hertz pulse train in the control condition (DMSO only) and after compound addition. The pulse train consisted of sixty 20 millisecond test pulses to 0 millivolt from a holding potential of −80 millivolt (mV). The average peak currents elicited by the last 3 test pulses were used to determine IC50 values for Nav1.5 inhibition.
The following buffers were used for the Qube® recordings: External buffer for Nav1.8 Qube® recording: 150 NaCl, 2 CaCl2, 5 KCl, 1 Mg Cl2, 10 HEPES, 12 Dextrose; External buffer for Qube® Nav1.5 recording: 120 N-Methyl-D-Glucamine, 40 NaCl, 1 KCl, 2.7 CaCl2, 5 HEPES, 0.5 MgCl2: and Internal buffer for Qube® recording: 120 CsF, 30 CsCl, 10 EGTA, 5 HEPES, 5 NaF, 2 MgCl2.
For all Qube® experiments offline analysis was used to determine percent inhibition as a function of drug concentration. IC50 values were determined by fitting to the Hill equation.
Background: The patch-clamp technique gives a direct electrical read-out from membranes.
As to `Cc1nc(N2CCCCCC2)c(C(=O)Nc2cncc(S(N)(=O)=O)c2)c(C)c1Cl` [Example 188, 2-(azepan-1-yl)-5-chloro-4,6-dimethyl-N-(5-sulfamoyl-3-pyridyl)pyridine-3-carboxamide], the IC50 is 5.9 nM. Take `NS(=O)(=O)c1cc(NC(=O)c2cnc(C3CC3)nc2N2CCCC(F)(F)CC2)ccn1` [Example 38, 2-cyclopropyl-4-(4,4-difluoroazepan-1-yl)-N-(2-sulfamoylpyridin-4-yl)pyrimidine-5-carboxamide]: the IC50 stood at 24 nM. The value for `NS(=O)(=O)c1cc(NC(=O)c2cc(C(F)(F)F)cnc2N2CCCO[C@@H](C(F)(F)F)C2)ccn1` [Example 105, (R)-N-(2-sulfamoylpyridin-4-yl)-5-(trifluoromethyl)-2-(2-(trifluoromethyl)-1,4-oxazepan-4-yl)nicotinamide] was 696 nM; that for `C[C@H]1CN(c2ncc(C(F)(F)F)cc2C(=O)Nc2ccnc(S(N)(=O)=O)c2)CC[C@@H]1O` [Example 77, 2-[(3S,4S)-4-hydroxy-3-methyl-1-piperidyl]-N-(2-sulfamoyl-4-pyridyl)-5-(trifluoromethyl)pyridine-3-carboxamide] was 2980 nM; that for `NS(=O)(=O)c1cc(NC(=O)c2cc(C(F)(F)F)cnc2N2C[C@H]3CC[C@H]3C2)ccn1` [Example 68, 2-((1R,5S)-3-azabicyclo[3.2.0]heptan-3-yl)-N-(2-sulfamoylpyridin-4-yl)-5-(trifluoromethyl)nicotinamide] was 29 nM. To `NS(=O)(=O)c1cc(NC(=O)c2cc(C(F)(F)F)cnc2N2CCCO[C@H](C(F)(F)F)C2)ccn1` [Example 104, (S)-N-(2-sulfamoylpyridin-4-yl)-5-(trifluoromethyl)-2-(2-(trifluoromethyl)-1,4-oxazepan-4-yl)nicotinamide] belongs 56 nM.

Consider `Cc1nc(N2CCOC(C(F)F)CC2)c(C(=O)Nc2ccnc(S(N)(=O)=O)c2)cc1Cl` (single isomer, unassigned) [Example 116, 5-chloro-2-[(7R or 7S)-7-(difluoromethyl)-1,4-oxazepan-4-yl]-6-methyl-N-(2-sulfamoylpyridin-4-yl)pyridine-3-carboxamide], for which the IC50 came to 32 nM. The value for `Cc1nc(N2CCC3(CC2)CC3)c(C(=O)Nc2ccnc(S(N)(=O)=O)c2)c(C)c1Cl` [Example 202, 5-chloro-4,6-dimethyl-2-(6-azaspiro[2.5]octan-6-yl)-N-(2-sulfamoylpyridin-4-yl)nicotinamide] was 1.9 nM; that for `CC1CN(c2ncc(C(F)(F)F)cc2C(=O)Nc2ccnc(S(C)(=O)=O)c2)CCC1(F)F` (single isomer, unassigned) [Example 149, 2-[(3S or 3R)-4,4-difluoro-3-methyl-1-piperidyl]-N-(2-methylsulfonyl-4-pyridyl)-5-(trifluoro-methyl)pyridine-3-carboxamide] was 57 nM; that for `Cc1nc(C2CCC(F)(F)CC2)c(C(=O)Nc2ccnc(S(N)(=O)=O)c2)c(C)c1Cl` [Example 218, 5-chloro-2-(4,4-difluorocyclohexyl)-4,6-dimethyl-N-(2-sulfamoylpyridin-4-yl)nicotinamide] was 2.4 nM. As to `NS(=O)(=O)c1cc(NC(=O)c2cc(C(F)(F)F)cnc2N2CCN(CC3CC3)C(=O)C2)ccn1` [Example 99, 2-[4-(cyclopropylmethyl)-3-oxo-piperazin-1-yl]-N-(2-sulfamoyl-4-pyridyl)-5-(trifluoromethyl)pyridine-3-carboxamide], the IC50 turned out to be 2560 nM. `NS(=O)(=O)c1cc(NC(=O)c2cc(C(F)(F)F)cnc2N2Cc3cccc(OC(F)(F)F)c3C2)ccn1` [Example 90, N-(2-sulfamoyl-4-pyridyl)-2-[4-(trifluoromethoxy)isoindolin-2-yl]-5-(trifluoromethyl)pyridine-3-carboxamide]: the half-maximal inhibitory concentration (IC50) came out at 294 nM. To `O=C(Nc1cncc(CO)c1)c1cc(C(F)(F)F)cnc1N1CCCCCC1` [Example 196, 2-(azepan-1-yl)-N-[5-(hydroxymethyl)-3-pyridyl]-5-(trifluoro-methyl)pyridine-3-carboxamide] belongs 5190 nM; to `Cc1nc(N2CCOC(C(F)F)C2)c(C(=O)Nc2ccnc(S(N)(=O)=O)c2)cc1Cl` (single isomer, unassigned) [Example 124, (S or R)-5-chloro-2-(2-(difluoromethyl)morpholino)-6-methyl-N-(2-sulfamoylpyridin-4-yl)nicotinamide], 50 nM. The value for `NS(=O)(=O)c1cc(NC(=O)c2cc(C(F)(F)F)cnc2N2CCn3c(Cc4ccccc4)cnc3C2)ccn1` [Example 86, 2-(3-benzyl-6,8-dihydro-5H-imidazo[1,2-a]pyrazin-7-yl)-N-(2-sulfamoyl-4-pyridyl)-5-(trifluoromethyl)pyridine-3-carboxamide] was 172 nM. To `Cc1ccc(C(=O)Nc2ccnc(S(N)(=O)=O)c2)c(N2CCCC(F)(F)C(F)C2)n1` (centres unmarked) [Example 40, 6-methyl-N-(2-sulfamoylpyridin-4-yl)-2-(3,4,4-trifluoroazepan-1-yl)nicotinamide] belongs 4.1 nM; to `NS(=O)(=O)c1cc(NC(=O)c2cc(C3CC3)c(OC(F)(F)F)nc2N2CCC(F)(F)CC2)ccn1` [Example 182, 5-cyclopropyl-2-(4,4-difluoropiperidin-1-yl)-N-(2-sulfamoylpyridin-4-yl)-6-(trifluoromethoxy)nicotinamide], 62 nM; to `NS(=O)(=O)c1cc(NC(=O)c2cc(C(F)(F)F)cnc2N2CCCC(Cc3ccc(C(F)(F)F)cc3)C2)ccn1` (centres unmarked) [Example 83, N-(2-sulfamoyl-4-pyridyl)-5-(trifluoromethyl)-2-[3-[[4-(trifluoromethyl)phenyl]methyl]-1-piperidyl]pyridine-3-carboxamide], 114 nM.

For `NS(=O)(=O)c1cc(NC(=O)c2cc(C(F)(F)F)cnc2N2CCOC(c3ccc(C(F)(F)F)cc3)C2)ccn1` (centres unmarked) [Example 91, N-(2-sulfamoyl-4-pyridyl)-5-(trifluoromethyl)-2-[2-[4-(trifluoromethyl)phenyl]morpholin-4-yl]pyridine-3-carboxamide], the half-inhibitory concentration (IC50) was 616 nM. Turning to `Cc1nc(N2CCC(F)(F)CC2)c(C(=O)Nc2ccnc(S(N)(=O)=O)c2)cc1C1CC1` [Example 14, 5-cyclopropyl-2-(4,4-difluoropiperidin-1-yl)-6-methyl-N-(2-sulfamoylpyridin-4-yl)nicotinamide], the IC50 was determined as 45 nM.

As for `Cc1nc(N2CCOC(C(F)F)CC2)c(C(=O)Nc2ccnc(S(N)(=O)=O)c2)cc1Cl` (single isomer, unassigned) [Example 117, 5-chloro-2-[(7S or 7R)-7-(difluoromethyl)-1,4-oxazepan-4-yl]-6-methyl-N-(2-sulfamoylpyridin-4-yl)pyridine-3-carboxamide], the IC50 is 18 nM. For `C[C@H]1CCN(c2ncc(C(F)(F)F)cc2C(=O)Nc2ccnc(S(N)(=O)=O)c2)CCO1` [Example 108, 2-[(7S)-7-methyl-1,4-oxazepan-4-yl]-N-(2-sulfamoyl-4-pyridyl)-5-(trifluoromethyl)pyridine-3-carboxamide], the IC50 was 191 nM.

Take `CS(=O)(=O)n1cc(NC(=O)c2cc(C(F)(F)F)cnc2N2CCCC(F)(F)CC2)c2cccnc21` [Example 30, 2-(4,4-difluoroazepan-1-yl)-N-[1-(methylsulfonyl)-1H-pyrrolo[2,3-b]pyridin-3-yl]-5-(trifluoromethyl)pyridine-3-carboxamide]: the IC50 was 4 nM.

What is called IC50 is the concentration that gives 50% inhibition.

The record behind these values is patent US20210387966A1, “2-AMINO-N-HETEROARYL-NICOTINAMIDES AS NAV1.8 INHIBITORS” (Merck Sharp & Dohme Corp., priority 2018, published 2021).
